Results as given in ChEMBL document CHEMBL4706488, “Design, synthesis and biological evaluation of 2-amino-4-(1,2,4-triazol)pyridine derivatives as potent EGFR inhibitors to overcome TKI-resistance” (Eur J Med Chem, 2020).
Blank lines part the entries; values can stand above or below the molecule they belong to. The source made the active and inactive calls. No cut-off for these calls is given here.

Assays:
NCI-H1975 [1] = experiment: Induction of apoptosis in human NCI-H1975 cells assessed as early apoptotic cells at 5 uM by annexinV-FITC/propidium iodide staining based flow cytometry analysis (reference value: 0.53 %); assay type: functional
[2] = target: Tyrosine-protein kinase Lck (Homo sapiens) (UniProt P06239); experiment: Inhibition of recombinant human LCK at 1 uM by Z-lyte assay relative to control
[3] = target: Aurora kinase B (Homo sapiens) (UniProt Q96GD4); experiment: Inhibition of recombinant full length human His-tagged AURKB expressed in baculovirus expression system at 1 uM by Z-lyte assay relative to control
NCI-H1975 [4] = experiment: Induction of apoptosis in human NCI-H1975 cells assessed as necrotic cells at 20 uM by annexinV-FITC/propidium iodide staining based flow cytometry analysis (reference value: 0.44 %); assay type: functional
[5] = target: Hepatocyte growth factor receptor (Homo sapiens) (UniProt P08581); experiment: Inhibition of recombinant human N-terminal His-tagged cMET (956 to 1390 residues) expressed in baculovirus expression system at 1 uM by Z-lyte assay relative to control
NCI-H1975 [6] = experiment: Induction of apoptosis in human NCI-H1975 cells assessed as early apoptotic cells at 10 uM by annexinV-FITC/propidium iodide staining based flow cytometry analysis (reference value: 0.53 %); assay type: functional
NCI-H1975 [7] = experiment: Induction of apoptosis in human NCI-H1975 cells assessed as late apoptotic cells at 20 uM by annexinV-FITC/propidium iodide staining based flow cytometry analysis (reference value: 0.42 %); assay type: functional
U87MG Human EGFR vIII = experiment: Induction of apoptosis in human U87MG Human EGFR vIII cells by annexinV-FITC/propidium iodide staining based flow cytometry analysis; assay type: functional, cell-based
[8] = target: Macrophage colony-stimulating factor 1 receptor (Homo sapiens) (UniProt P07333); experiment: Inhibition of recombinant human His-tagged CSF1R (538 to 910 residues) expressed in baculovirus expression system at 1 uM by Z-lyte assay relative to control
NCI-H1975 [9] = experiment: Induction of apoptosis in human NCI-H1975 cells assessed as late apoptotic cells at 10 uM by annexinV-FITC/propidium iodide staining based flow cytometry analysis (reference value: 0.42 %); assay type: functional
NCI-H1975 [10] = experiment: Induction of apoptosis in human NCI-H1975 cells assessed as live cells at 10 uM by annexinV-FITC/propidium iodide staining based flow cytometry analysis (reference value: 98.6 %); assay type: functional
cells = assay type: functional, tissue-based; details: Homo sapiens, U87MG Human EGFR vIII
Description: Antiproliferative activity against human U87MG Human EGFR vIII cells overexpressing EGFRvIII mutant assessed as inhibition of cell growth by MTT assay

[11] = target: Tyrosine-protein kinase Fyn (Homo sapiens) (UniProt P06241); experiment: Inhibition of recombinant full length human C-terminal His-tagged FYN expressed in baculovirus expression system at 1 uM by Z-lyte assay relative to control
NCI-H1975 [12] = experiment: Induction of apoptosis in human NCI-H1975 cells assessed as early apoptotic cells at 20 uM by annexinV-FITC/propidium iodide staining based flow cytometry analysis (reference value: 0.53 %); assay type: functional
[13] = target: Tyrosine-protein kinase JAK2 (Homo sapiens) (UniProt O60674); experiment: Inhibition of recombinant human GST-tagged JAK2 (809 to 1162 residues) expressed in baculovirus expression system at 1 uM by Z-lyte assay relative to control
[14] = target: Serine/threonine-protein kinase B-raf (Homo sapiens) (UniProt P15056); experiment: Inhibition of recombinant full length human GST-tagged BRAF expressed in baculovirus expression system at 1 uM by Z-lyte assay relative to control
NCI-H1975 [15] = experiment: Induction of apoptosis in human NCI-H1975 cells assessed as necrotic cells at 5 uM by annexinV-FITC/propidium iodide staining based flow cytometry analysis (reference value: 0.44 %); assay type: functional
[16] = target: Epidermal growth factor receptor (Homo sapiens, UniProt P00533, L858R/T790M); experiment: biochemical; assay type: cell-based, Sf21
[17] = target: BDNF/NT-3 growth factors receptor (Homo sapiens) (UniProt Q16620); experiment: Inhibition of recombinant human His-tagged NTRK2 (526 to 638 residues) expressed in baculovirus expression system at 1 uM by Z-lyte assay relative to control
[18] = target: Receptor tyrosine-protein kinase erbB-4 (Homo sapiens) (UniProt Q15303); experiment: Inhibition of N-terminal GST-tagged human recombinant HER4 (708 to 993 residues) expressed in baculovirus expression system at 1 uM by Z-lyte assay relative to control
[19] = target: Tyrosine-protein kinase BTK (Homo sapiens) (UniProt Q06187); experiment: Inhibition of recombinant full length human His-tagged BTK expressed in baculovirus expression system at 1 uM by Z-lyte assay relative to control
NCI-H1975 [20] = experiment: Induction of apoptosis in human NCI-H1975 cells assessed as late apoptotic cells at 5 uM by annexinV-FITC/propidium iodide staining based flow cytometry analysis (reference value: 0.42 %); assay type: functional
NCI-H1975 [21] = experiment: Induction of apoptosis in human NCI-H1975 cells assessed as live cells at 20 uM by annexinV-FITC/propidium iodide staining based flow cytometry analysis (reference value: 98.6 %); assay type: functional
[22] = target: Receptor tyrosine-protein kinase erbB-2 (Homo sapiens) (UniProt P04626); experiment: Inhibition of human recombinant His-tagged HER2 (676 to 1255 residues) expressed in baculovirus expression system at 1 uM by Z-lyte assay relative to control
NCI-H1975 [23] = experiment: Induction of apoptosis in human NCI-H1975 cells assessed as live cells at 5 uM by annexinV-FITC/propidium iodide staining based flow cytometry analysis (reference value: 98.6 %); assay type: functional
[24] = target: Vascular endothelial growth factor receptor 2 (Homo sapiens) (UniProt P35968); experiment: Inhibition of recombinant human His-tagged VEGFR2 (789 to 1356 residues) expressed in baculovirus expression system at 1 uM by Z-lyte assay relative to control
[25] = target: Insulin-like growth factor 1 receptor (Homo sapiens) (UniProt P08069); experiment: Inhibition of recombinant human C-terminal His-tagged IGF1R (960 to 1397 residues) expressed in baculovirus expression system at 1 uM by Z-lyte assay relative to control
[26] = target: Epidermal growth factor receptor (Homo sapiens, UniProt P00533); experiment: biochemical; assay type: cell-based, Sf21
Description: Inhibition of wild type N-terminal GST-tagged human EGFR cytoplasmic domain (669 to 1210 residues) expressed in baculovirus infected Sf21 cells using biotin-labeled TK substrate preincubated for 30 mins followed by substrate and ATP addition at Km concentration and further incubated for 20 mins by HTRF assay

[27] = target: ALK tyrosine kinase receptor (Homo sapiens) (UniProt Q9UM73); experiment: Inhibition of human recombinant GST-tagged ALK cytoplasmic domain (1058-1620 residues) expressed in baculovirus expression system at 1 uM by Z-lyte assay relative to control
NCI-H1975 [28] = experiment: cells; assay type: functional, cell-based; details: Homo sapiens
U-87 MG = experiment: cells; assay type: functional, cell-based, U-87MG ATCC; details: Homo sapiens;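 note: antiproliferative effect on U-87 MG cells carrying wild-type EGFR, growth inhibition read out by MTT assay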
Description: Antiproliferative activity against human U-87MG cells harboring wild type EGFR assessed as inhibition of cell growth by MTT assay

NCI-H1975 [29] = experiment: Induction of apoptosis in human NCI-H1975 cells assessed as necrotic cells at 10 uM by annexinV-FITC/propidium iodide staining based flow cytometry analysis (reference value: 0.44 %); assay type: functional
A-431 = experiment: cells; assay type: functional, cell-based; details: Homo sapiens;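 note: antiproliferative test in A-431 cells carrying wild-type EGFR, with cell growth inhibition read by MTT assay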
Description: Antiproliferative activity against human A-431 cells harboring wild type EGFR assessed as inhibition of cell growth by MTT assay

[30] = target: Mitogen-activated protein kinase 9 (Homo sapiens) (UniProt P45984); experiment: Inhibition of recombinant full length human His-tagged MAPK9 expressed in baculovirus expression system at 1 uM by Z-lyte assay relative to control

Epidermal growth factor receptor (Homo sapiens, UniProt P00533, L858R/T790M), sequence (P00533 25-1210 T790M/L858R limits assumed): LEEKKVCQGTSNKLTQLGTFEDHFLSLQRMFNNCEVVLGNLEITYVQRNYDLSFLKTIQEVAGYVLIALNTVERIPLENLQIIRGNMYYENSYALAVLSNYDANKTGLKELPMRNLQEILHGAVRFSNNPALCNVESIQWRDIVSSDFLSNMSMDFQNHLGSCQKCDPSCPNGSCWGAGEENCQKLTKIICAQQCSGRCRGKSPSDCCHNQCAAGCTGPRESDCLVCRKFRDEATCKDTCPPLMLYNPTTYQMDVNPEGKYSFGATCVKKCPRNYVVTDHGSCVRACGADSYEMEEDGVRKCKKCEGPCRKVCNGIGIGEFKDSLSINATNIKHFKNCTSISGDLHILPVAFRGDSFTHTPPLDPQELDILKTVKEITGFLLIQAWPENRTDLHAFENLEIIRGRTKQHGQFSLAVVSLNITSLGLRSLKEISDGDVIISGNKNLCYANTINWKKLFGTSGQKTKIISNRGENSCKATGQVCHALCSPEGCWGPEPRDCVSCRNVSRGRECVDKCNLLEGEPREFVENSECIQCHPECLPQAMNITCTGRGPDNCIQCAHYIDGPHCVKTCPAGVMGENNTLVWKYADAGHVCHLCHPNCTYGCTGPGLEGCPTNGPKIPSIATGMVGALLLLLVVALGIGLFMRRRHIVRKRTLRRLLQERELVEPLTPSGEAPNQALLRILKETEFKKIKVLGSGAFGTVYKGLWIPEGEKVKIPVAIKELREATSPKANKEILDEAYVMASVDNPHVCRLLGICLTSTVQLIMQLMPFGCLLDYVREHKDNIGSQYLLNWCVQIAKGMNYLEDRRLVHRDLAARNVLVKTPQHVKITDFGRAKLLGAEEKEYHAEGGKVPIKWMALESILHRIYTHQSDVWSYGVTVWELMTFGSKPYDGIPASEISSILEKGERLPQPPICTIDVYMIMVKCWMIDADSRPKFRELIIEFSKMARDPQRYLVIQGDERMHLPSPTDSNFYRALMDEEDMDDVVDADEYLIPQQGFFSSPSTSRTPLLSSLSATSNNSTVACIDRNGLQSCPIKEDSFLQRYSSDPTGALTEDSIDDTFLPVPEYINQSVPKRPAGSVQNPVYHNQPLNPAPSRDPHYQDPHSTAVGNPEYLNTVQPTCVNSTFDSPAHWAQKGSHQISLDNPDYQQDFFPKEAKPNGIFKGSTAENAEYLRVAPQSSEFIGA
Epidermal growth factor receptor (Homo sapiens, UniProt P00533), sequence (P00533 whole entry, the tested form may be a part): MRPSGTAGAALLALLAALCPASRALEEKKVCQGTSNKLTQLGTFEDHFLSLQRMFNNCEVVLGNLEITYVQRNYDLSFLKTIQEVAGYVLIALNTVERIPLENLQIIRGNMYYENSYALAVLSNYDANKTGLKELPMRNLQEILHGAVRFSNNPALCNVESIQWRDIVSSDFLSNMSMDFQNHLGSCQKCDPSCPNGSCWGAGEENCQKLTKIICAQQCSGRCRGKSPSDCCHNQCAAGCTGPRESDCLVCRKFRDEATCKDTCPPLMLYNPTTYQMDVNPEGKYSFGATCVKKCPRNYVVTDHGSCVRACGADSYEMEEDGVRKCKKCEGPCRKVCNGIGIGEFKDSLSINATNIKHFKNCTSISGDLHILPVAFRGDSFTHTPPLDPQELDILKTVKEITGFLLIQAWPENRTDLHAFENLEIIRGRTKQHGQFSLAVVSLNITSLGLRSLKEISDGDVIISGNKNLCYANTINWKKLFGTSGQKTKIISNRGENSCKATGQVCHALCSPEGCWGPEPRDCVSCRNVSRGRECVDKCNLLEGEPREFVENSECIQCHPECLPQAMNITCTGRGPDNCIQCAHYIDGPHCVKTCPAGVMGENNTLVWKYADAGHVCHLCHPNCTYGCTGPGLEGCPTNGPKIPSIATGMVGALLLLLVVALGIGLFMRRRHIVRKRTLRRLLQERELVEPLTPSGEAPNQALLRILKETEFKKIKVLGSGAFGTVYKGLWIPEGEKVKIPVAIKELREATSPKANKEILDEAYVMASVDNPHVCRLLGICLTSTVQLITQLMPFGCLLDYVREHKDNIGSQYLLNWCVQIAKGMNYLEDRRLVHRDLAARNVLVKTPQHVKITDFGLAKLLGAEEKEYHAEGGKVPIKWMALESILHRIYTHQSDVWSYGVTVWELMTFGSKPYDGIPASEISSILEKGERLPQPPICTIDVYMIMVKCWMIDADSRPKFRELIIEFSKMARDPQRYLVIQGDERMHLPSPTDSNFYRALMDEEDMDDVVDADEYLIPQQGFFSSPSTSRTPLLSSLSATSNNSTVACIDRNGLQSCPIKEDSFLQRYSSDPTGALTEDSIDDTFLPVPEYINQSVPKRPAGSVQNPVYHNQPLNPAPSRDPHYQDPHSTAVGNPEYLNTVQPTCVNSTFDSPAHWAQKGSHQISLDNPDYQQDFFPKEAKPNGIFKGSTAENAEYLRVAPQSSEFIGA
Hepatocyte growth factor receptor (Homo sapiens), sequence (P08581 whole entry, the tested form may be a part): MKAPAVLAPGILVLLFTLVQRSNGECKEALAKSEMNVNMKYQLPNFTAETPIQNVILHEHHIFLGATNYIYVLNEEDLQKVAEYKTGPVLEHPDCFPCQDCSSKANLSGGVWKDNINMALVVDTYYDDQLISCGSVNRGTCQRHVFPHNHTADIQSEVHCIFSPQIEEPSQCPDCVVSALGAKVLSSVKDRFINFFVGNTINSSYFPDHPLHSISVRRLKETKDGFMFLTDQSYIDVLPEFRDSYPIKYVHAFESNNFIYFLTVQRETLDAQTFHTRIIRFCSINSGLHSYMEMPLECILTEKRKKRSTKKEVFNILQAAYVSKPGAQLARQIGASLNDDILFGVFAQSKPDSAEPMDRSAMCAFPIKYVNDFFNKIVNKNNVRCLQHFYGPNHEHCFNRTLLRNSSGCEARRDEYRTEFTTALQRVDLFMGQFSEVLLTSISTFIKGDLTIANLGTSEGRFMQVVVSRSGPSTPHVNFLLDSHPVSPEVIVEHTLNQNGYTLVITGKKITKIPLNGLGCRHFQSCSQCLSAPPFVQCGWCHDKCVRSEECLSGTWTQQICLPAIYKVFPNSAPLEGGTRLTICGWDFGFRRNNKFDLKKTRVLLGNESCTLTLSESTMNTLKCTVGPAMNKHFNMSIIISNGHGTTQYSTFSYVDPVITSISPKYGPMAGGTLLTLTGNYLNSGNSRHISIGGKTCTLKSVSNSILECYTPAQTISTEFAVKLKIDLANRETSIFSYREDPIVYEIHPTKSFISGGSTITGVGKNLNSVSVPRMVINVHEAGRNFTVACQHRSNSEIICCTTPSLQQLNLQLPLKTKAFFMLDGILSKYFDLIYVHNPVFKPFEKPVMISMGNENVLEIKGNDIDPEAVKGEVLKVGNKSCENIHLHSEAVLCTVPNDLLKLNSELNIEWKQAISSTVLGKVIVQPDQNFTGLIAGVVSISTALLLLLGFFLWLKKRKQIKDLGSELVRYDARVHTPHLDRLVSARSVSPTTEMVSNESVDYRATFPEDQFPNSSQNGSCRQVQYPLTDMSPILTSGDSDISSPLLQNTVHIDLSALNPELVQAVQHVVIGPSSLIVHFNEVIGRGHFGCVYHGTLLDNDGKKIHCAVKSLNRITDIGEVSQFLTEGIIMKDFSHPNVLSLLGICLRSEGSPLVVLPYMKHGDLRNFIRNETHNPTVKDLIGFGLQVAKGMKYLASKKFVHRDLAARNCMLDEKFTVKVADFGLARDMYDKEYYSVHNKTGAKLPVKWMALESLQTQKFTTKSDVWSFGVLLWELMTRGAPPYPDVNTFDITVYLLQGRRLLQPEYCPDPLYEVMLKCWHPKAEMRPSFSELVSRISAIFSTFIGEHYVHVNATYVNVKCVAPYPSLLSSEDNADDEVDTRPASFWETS
Tyrosine-protein kinase Fyn (Homo sapiens), sequence (P06241 2-537 limits assumed): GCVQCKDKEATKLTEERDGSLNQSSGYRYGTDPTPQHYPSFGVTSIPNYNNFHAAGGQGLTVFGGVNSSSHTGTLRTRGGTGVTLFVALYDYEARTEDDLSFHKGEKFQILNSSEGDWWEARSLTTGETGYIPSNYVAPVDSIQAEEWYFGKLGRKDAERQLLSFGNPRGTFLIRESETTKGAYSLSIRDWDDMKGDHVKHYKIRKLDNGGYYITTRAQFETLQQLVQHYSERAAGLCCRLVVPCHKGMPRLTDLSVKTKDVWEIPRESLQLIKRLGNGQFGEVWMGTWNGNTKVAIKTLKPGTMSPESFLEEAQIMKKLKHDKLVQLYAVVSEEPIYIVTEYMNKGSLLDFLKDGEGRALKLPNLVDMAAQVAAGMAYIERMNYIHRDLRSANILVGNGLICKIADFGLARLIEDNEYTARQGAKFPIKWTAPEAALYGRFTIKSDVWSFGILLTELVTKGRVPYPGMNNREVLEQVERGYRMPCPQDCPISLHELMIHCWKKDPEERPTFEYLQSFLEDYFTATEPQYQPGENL
Tyrosine-protein kinase BTK (Homo sapiens), sequence (Q06187 whole entry): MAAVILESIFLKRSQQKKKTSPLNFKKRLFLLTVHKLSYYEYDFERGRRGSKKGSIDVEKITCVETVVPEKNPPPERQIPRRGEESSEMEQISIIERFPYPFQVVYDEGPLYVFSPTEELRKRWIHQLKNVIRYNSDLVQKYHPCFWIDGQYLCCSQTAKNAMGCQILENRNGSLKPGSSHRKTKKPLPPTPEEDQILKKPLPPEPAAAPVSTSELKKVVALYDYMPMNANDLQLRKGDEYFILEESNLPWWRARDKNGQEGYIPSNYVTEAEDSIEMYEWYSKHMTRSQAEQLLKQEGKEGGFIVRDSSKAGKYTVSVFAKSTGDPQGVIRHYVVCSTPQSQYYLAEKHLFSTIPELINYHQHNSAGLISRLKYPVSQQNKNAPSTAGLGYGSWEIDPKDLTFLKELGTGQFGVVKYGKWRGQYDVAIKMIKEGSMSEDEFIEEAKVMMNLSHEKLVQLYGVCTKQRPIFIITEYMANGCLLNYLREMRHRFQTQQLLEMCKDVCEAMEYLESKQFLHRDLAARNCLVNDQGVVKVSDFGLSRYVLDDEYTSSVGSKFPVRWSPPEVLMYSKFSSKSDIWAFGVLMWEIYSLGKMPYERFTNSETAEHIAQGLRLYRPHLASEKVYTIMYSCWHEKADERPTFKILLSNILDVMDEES

SMILES: C=CC(=O)Nc1cc(Nc2cc(-n3c(SC)nnc3-c3ccc(F)cc3)ccn2)c(OC)cc1N(C)CCN(C)C
- Activity (NCI-H1975 [1]): 1.28%
- inhibition [2]: 11%
- inhibition [3]: 13%
- Activity (NCI-H1975 [4]): 3.99%
- inhibition [5]: 9%
- Activity (NCI-H1975 [6]): 1.69%
- Activity (NCI-H1975 [7]): 7.14%
- Activity (U87MG Human EGFR vIII): inactive
- inhibition [8]: 12%
- Activity (NCI-H1975 [9]): 1.87%
- Activity (NCI-H1975 [10]): 95.5%
- IC50 (cells): 18 µM
- inhibition [11]: 5%
- Activity (NCI-H1975 [12]): 4.83%
- inhibition [13]: 12%
- inhibition [14]: -7%
- Activity (NCI-H1975 [15]): 0.44%
- IC50 [16]: 0.0431 µM
- inhibition [17]: 17%
- inhibition [18]: 76%
- inhibition [19]: 4%
- Activity (NCI-H1975 [20]): 1.1%
- Activity (NCI-H1975 [21]): 84%
- inhibition [22]: 16%
- Activity (NCI-H1975 [23]): 97.2%
- inhibition [24]: 18%
- inhibition [25]: 10%
- IC50 [26]: 0.0893 µM
- inhibition [27]: 10%
- IC50 (NCI-H1975 [28]): 5.4 µM
- IC50 (U-87 MG): 2.8 µM
- Activity (NCI-H1975 [29]): 0.91%
- IC50 (A-431): 4 µM
- inhibition [30]: 7%

SMILES: C=CC(=O)Nc1ccc(OC)c(Nc2cc(-n3c(SC)nnc3-c3ccc(F)cc3)ccn2)c1
- IC50 (cells): 26.3 µM
- IC50 [16]: 0.147 µM
- IC50 [26]: 0.179 µM
- IC50 (NCI-H1975 [28]): 7.8 µM
- IC50 (U-87 MG): 4.5 µM
- IC50 (A-431): 3.4 µM

SMILES: C=CC(=O)Nc1cccc(Nc2cc(-n3c(SC)nnc3-c3ccc(F)cc3)ccn2)c1
- IC50 (cells): 13 µM
- IC50 [16]: 0.234 µM
- IC50 (NCI-H1975 [28]): 10.7 µM
- IC50 (U-87 MG): 3.5 µM
- IC50 (A-431): 6.9 µM

SMILES: CCC(=O)Nc1cc(Nc2cc(-n3c(SC)nnc3-c3ccc(F)cc3)ccn2)c(OC)cc1N(C)CCN(C)C
- IC50 (cells): > 100 µM
- IC50 (NCI-H1975 [28]): > 100 µM
- IC50 (U-87 MG): 53.1 µM
- IC50 (A-431): 73.9 µM

SMILES: C=CC(=O)Nc1cc(Nc2cc(-n3c(SC)nnc3-c3ccc(F)cc3)ccn2)c(OC)cc1N1CCCN(C)CC1
- IC50 (cells): 43.6 µM
- IC50 [16]: 0.156 µM
- IC50 [26]: 0.333 µM
- IC50 (NCI-H1975 [28]): 8.1 µM
- IC50 (U-87 MG): 6.97 µM
- IC50 (A-431): 10.3 µM

Now from value to molecule:

- IC50 (cells): 35.7 µM
- IC50 (NCI-H1975 [28]): 53.5 µM
- IC50 (U-87 MG): 68.1 µM
- IC50 (A-431): 52.6 µM
SMILES: C=CC(=O)Nc1ccc(OC)c(Nc2cc(-n3c(C)nnc3-c3ccc(F)cc3)ccn2)c1

- IC50 (cells): 39.7 µM
- IC50 (NCI-H1975 [28]): 13.2 µM
- IC50 (U-87 MG): 8.42 µM
- IC50 (A-431): 11.4 µM
SMILES: C=CC(=O)Nc1cc(Nc2cc(-n3c(SC)nnc3-c3ccc(F)cc3)ccn2)c(OC)cc1N1CCC(N(C)C)CC1

- IC50 (cells): > 100 µM
- IC50 (NCI-H1975 [28]): > 100 µM
- IC50 (U-87 MG): 8.66 µM
- IC50 (A-431): 14.3 µM
SMILES: C=CC(=O)Nc1cc(Nc2cc(-n3c(SC)nnc3-c3ccc(F)cc3)ccn2)c(OC)cc1N1CCN(C)CC1

- IC50 (cells): 25.5 µM
- IC50 (NCI-H1975 [28]): 14.9 µM
- IC50 (U-87 MG): 6.49 µM
- IC50 (A-431): 9.9 µM
SMILES: C=CC(=O)Nc1cc(Nc2cc(-n3c(SC)nnc3-c3ccc(F)cc3)ccn2)c(OC)cc1N1CCN(C2CCN(C)CC2)CC1
